# Data published in patent publication US20060110456A1, “Method for biocidal and/or biostatic treatment and compositions therefor” (NATIONAL UNIVERSITY OF SINGAPORE, priority 2004, published 2006).
# System: marine bacteria (26 strains)
# Experiment: Disk inhibition assay
# Type: cell-based, marine bacteria isolated from Singapore fouling communities
# Conditions: for zone of inhibition at 5 µg/disc: 5 μg per disc; for zone of inhibition at 30 µg/disc: 30 μg per disc
# Description: Preparation of Drugs onto Disks for Assay
# The non-antibiotic pharmaceuticals of Table 1 were prepared in the following way. A tablet with a known amount of active ingredient (as stated in the product information) was ground in a mortar and pestle and suspended in sterile deionized water to a concentration of 2 mg ml^−1. These samples were sonicated for at least 1 min. […] The two halves of the capsule were separated and the powder released straight into a bottle and suitable amount of water added to make a concentration of 2 mg ml^−1.
# As a comparison to the pharmaceuticals, to determine the susceptibility of the bacterial isolates to conventional antibiotics, commercially available antibiotic discs were used. Antibiotic discs (Oxoid® CT series) containing Ampicillin [Amp] (2 and 10 μg), Erythromycin [Ery] (5 and 15 μg), Streptomycin [Str] (10 and 25 μg) and Tetracycline [Tet] (5 and 30 μg) were placed on lawns of the bacterial strains inoculated as described below.
# Sterile swabs dipped into the cultures were used to inoculate Marine Agar plates with a bacterial lawn by smearing the culture over the surface. After inoculating the plates, discs with antibiotics, pharmaceuticals or control blanks were placed on each plate. Each concentration of antibiotic or pharmaceutical was tested with three replicates on three separate occasions. After the disks were placed on the agar surface, plates were incubated overnight in the dark at 30° C. After incubation, plates were examined for zones of inhibition or clearing around control and treated disks. The diameter of any zone of clearing or inhibition was measured using Vernier calipers.
# The assay was repeated three times with three replicates for each concentration used, each time.
compound,measurement,setting,value
"CN(C)[C@@H]1C(O)=C(C(N)=O)C(=O)[C@@]2(O)C(O)=C3C(=O)c4c(O)cccc4[C@@](C)(O)[C@H]3C[C@@H]12 [Tet, tetracycline]",zone of inhibition at 5 µg/disc,strain 1 (Rhodovulum),< 6 mm
same,zone of inhibition at 30 µg/disc,strain 1 (Rhodovulum),< 6 mm
same,zone of inhibition at 5 µg/disc,strain 2 (Erythrobacter),< 6 mm
same,zone of inhibition at 30 µg/disc,strain 2 (Erythrobacter),< 6 mm
same,zone of inhibition at 5 µg/disc,strain 3 (Erythrobacter),< 6 mm
same,zone of inhibition at 30 µg/disc,strain 3 (Erythrobacter),< 6 mm
same,zone of inhibition at 5 µg/disc,strain 4 (Bacillus),10 to 19 mm
same,zone of inhibition at 30 µg/disc,strain 4 (Bacillus),10 to 19 mm
same,zone of inhibition at 5 µg/disc,strain 6 (Vibrio),< 6 mm
same,zone of inhibition at 30 µg/disc,strain 6 (Vibrio),6 to 9 mm
same,zone of inhibition at 5 µg/disc,strain 7 (Vibrio),< 6 mm
same,zone of inhibition at 30 µg/disc,strain 7 (Vibrio),6 to 9 mm
same,zone of inhibition at 5 µg/disc,strain 8 (Bacillus),6 to 9 mm
same,zone of inhibition at 30 µg/disc,strain 8 (Bacillus),10 to 19 mm
same,zone of inhibition at 5 µg/disc,strain 9 (Bacillus),10 to 19 mm
same,zone of inhibition at 30 µg/disc,strain 9 (Bacillus),10 to 19 mm
same,zone of inhibition at 5 µg/disc,strain 10 (Halobacillus),30 to 39 mm
same,zone of inhibition at 30 µg/disc,strain 10 (Halobacillus),10 to 19 mm
same,zone of inhibition at 5 µg/disc,strain 11 (Pseudomonas),< 6 mm
same,zone of inhibition at 30 µg/disc,strain 11 (Pseudomonas),< 6 mm
same,zone of inhibition at 5 µg/disc,strain 12 (Gordonia),< 6 mm
same,zone of inhibition at 30 µg/disc,strain 12 (Gordonia),30 to 39 mm
same,zone of inhibition at 5 µg/disc,strain 13 (Bacillus),6 to 9 mm
same,zone of inhibition at 30 µg/disc,strain 13 (Bacillus),10 to 19 mm
same,zone of inhibition at 5 µg/disc,strain 14 (Vibrio),< 6 mm
same,zone of inhibition at 30 µg/disc,strain 14 (Vibrio),10 to 19 mm
same,zone of inhibition at 5 µg/disc,strain 16 (Pseudoalteromonas),< 6 mm
same,zone of inhibition at 30 µg/disc,strain 16 (Pseudoalteromonas),< 6 mm
same,zone of inhibition at 5 µg/disc,strain 17 (Gordonia),< 6 mm
same,zone of inhibition at 30 µg/disc,strain 17 (Gordonia),< 6 mm
same,zone of inhibition at 5 µg/disc,strain 18 (Microbacterium),< 6 mm
same,zone of inhibition at 30 µg/disc,strain 18 (Microbacterium),6 to 9 mm
same,zone of inhibition at 5 µg/disc,strain 19 (Erythrobacter),< 6 mm
same,zone of inhibition at 30 µg/disc,strain 19 (Erythrobacter),< 6 mm
same,zone of inhibition at 5 µg/disc,strain 20,< 6 mm
same,zone of inhibition at 30 µg/disc,strain 20,10 to 19 mm
same,zone of inhibition at 5 µg/disc,strain 21,< 6 mm
same,zone of inhibition at 30 µg/disc,strain 21,10 to 19 mm
same,zone of inhibition at 5 µg/disc,strain 22,6 to 9 mm
same,zone of inhibition at 30 µg/disc,strain 22,10 to 19 mm
same,zone of inhibition at 5 µg/disc,strain 24,< 6 mm
same,zone of inhibition at 30 µg/disc,strain 24,< 6 mm
same,zone of inhibition at 5 µg/disc,strain 26,< 6 mm
same,zone of inhibition at 30 µg/disc,strain 26,< 6 mm
same,zone of inhibition at 5 µg/disc,strain 27,< 6 mm
same,zone of inhibition at 30 µg/disc,strain 27,10 to 19 mm
same,zone of inhibition at 5 µg/disc,strain 28,< 6 mm
same,zone of inhibition at 30 µg/disc,strain 28,10 to 19 mm
same,zone of inhibition at 5 µg/disc,strain 29,10 to 19 mm
same,zone of inhibition at 30 µg/disc,strain 29,20 to 29 mm
same,zone of inhibition at 5 µg/disc,strain 30,10 to 19 mm
same,zone of inhibition at 30 µg/disc,strain 30,10 to 19 mm
